According to patent publication US12150940B2, “WASp-protecting small molecules, compositions, methods and uses thereof in the treatment of innate and acquired immune-related disorders or conditions” (BAR ILAN UNIVERSITY, priority 2016, dated 2024):

Legend:
WASp [1] = biological target: T1, WASp (Homo sapiens, UniProt P42768); assay: WASp ubiquitylation in platelets (immunoprecipitation, anti-ubiquitin blot); type: cell-based; conditions: 15 min pre-incubation, vs activated untreated cells
T1 construct: endogenous in cells; host or cells: primary human platelets from healthy donors
T1 sequence (P42768 1-502): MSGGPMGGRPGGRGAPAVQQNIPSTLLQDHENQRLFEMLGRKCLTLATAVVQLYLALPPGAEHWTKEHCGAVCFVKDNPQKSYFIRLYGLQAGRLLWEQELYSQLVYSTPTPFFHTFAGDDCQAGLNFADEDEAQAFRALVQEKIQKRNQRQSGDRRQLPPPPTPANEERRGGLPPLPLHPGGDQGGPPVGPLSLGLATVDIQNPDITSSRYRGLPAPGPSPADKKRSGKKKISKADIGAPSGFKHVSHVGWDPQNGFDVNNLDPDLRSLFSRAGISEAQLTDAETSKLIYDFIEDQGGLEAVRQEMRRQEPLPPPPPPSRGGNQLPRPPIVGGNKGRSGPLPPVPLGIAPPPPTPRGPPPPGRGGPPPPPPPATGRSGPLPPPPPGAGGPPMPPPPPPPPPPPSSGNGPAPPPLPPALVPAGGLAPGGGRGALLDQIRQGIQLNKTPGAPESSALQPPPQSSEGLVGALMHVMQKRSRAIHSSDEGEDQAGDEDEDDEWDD
Method: FIGS. 12A and 12B. show freshly-isolated platelets that were either stimulated (+) with TRAP-6 (10 μM) or unstimulated (−) and pre-incubated at 37° C. for 15 min with either DMSO or the indicated WASp-binding SMCs (FIG. 12A—SMC #6; FIG. 12B—SMC #33), followed by lysis. Lysates were subjected to immunoprecipitation with anti-WASp antibody and were analyzed by western blotting with anti-ubiquitin (Ub) and with anti-WASp as precipitation control. Ubiquitylated WASp appears as a smear of bands above the molecular weight (MW) of 65 kDa with a prominent band at ˜81 kDa. Blots are representative of three independent experiments.
(§1) Immunoprecipitations and western blotting analysis were performed as previously described (Reicher et al, 2012). Briefly, platelets (2×10^8 cells per sample) were lysed by the addition of an equal volume of 2× lysis buffer (30 mM HEPES pH7.4, 300 mM NaCl, 2 mM phenylmethyl sulfonyl fluoride (PMSF), 2 mM sodium orthovanadate, 2% Triton X-100 and complete protease inhibitor tablets (Roche)). MEG-01 cells (2×10^7 cells per sample) were lysed in 1.25× lysis buffer. Proteasome activity was blocked by addition of MG132 (AdooQ) to platelets and Meg-01 cell medium at final concentration of 10 μM, for 1 h before the cells were harvested. […]

WASp [2] = biological target: T1, WASp; assay: WASp ubiquitylation in PBMCs (immunoprecipitation, anti-ubiquitin blot); type: cell-based; conditions: vs activated negative control cells
Method: FIGS. 12C and 12D. show freshly-isolated PBMCs that were either co-stimulated (+) with anti-CD3 and anti-CD28 or unstimulated (−). The PBMCs were pre-incubated at 37° C. for 15 min with either DMSO or the indicated WASp-binding SMCs (FIG. 12C—SMC #6; FIG. 12D—SMC #33), followed by lysis. WASp ubiquitylation was determined by immunoprecipitation as in FIG. 12A-12B. Ubiquitylated WASp appears as a smear of bands above the MW of 65 kDa with a prominent band at […]. Blots are representative of three independent experiments.
as §1, with “harvested. Densitometric analysis of band intensities was performed with ImageJ software, with final results normalized with WASp or GAPDH as loading controls for immunoprecipitated samples and whole-cell lysates, respectively.” for “harvested.”

WAS−/− Jurkat T-cells = assay: Lymphocyte migration on ICAM-1/SDF-1α, WAS−/− cells; type: cell-based, human
Method: WASp knockout Jurkat T-cell lines that express only exogenous YFP-WASp R86C (WAS^−/−/WASp R86C) or Y107C (WAS^−/−/WASp Y107C) were pretreated with SMC #34 in comparison to cells treated with the control. Cells that completely lack WASp expression (WAS^−/−) were also treated with the control. Cellular migration was tracked over a 20-min period on ICAM-1/SDF-1α-coated cover glasses, as described in Experimental procedures.
Approximately 1×10^5 lymphocytes were seeded over chambered coverslips (LabTek) pre-coated with 6 μg/ml ICAM-1 and 2 μg/ml SDF-1α. Cells were incubated at 37° C., 5% CO2 and DIC images were acquired with the Zeiss Observer Z1 inverted microscope every 5 s for 20 min under a 20× objective lens using Zen software. The random movement (Displacement and velocity) of the cells was automatically tracked and analyzed using TrackMate plugin of ImageJ software. An individual trace was assigned to each of the analyzed cells.

Row | WASp ubiquitylation in active platelets (WASp [1]) | ubiquitylation of WASp in active lymphocytes (WASp [2]) | SMILES | migration (WAS−/− Jurkat T-cells)
1 | considerably decreased | downregulated | CC(=O)N[C@H]1C[C@@H](c2ccc3c(c2)nnn3C)O[C@@H](c2ccc(Cl)cc2)C1 [SMC #6, N-[(2R,4R,6S)-2-(4-chlorophenyl)-6-(1-methylbenzotriazol-5-yl)oxan-4-yl]acetamide] | 
2 |  |  | CC1CCCC(C)N1C(=O)CSc1nnc(COc2cccc3cccnc23)o1 (centres unmarked) [SMC #34, 1-(2,6-dimethylpiperidin-1-yl)-2-[[5-(quinolin-8-yloxymethyl)-1,3,4-oxadiazol-2-yl]sulfanyl]ethanone] | completely restored the migration
3 | considerably decreased | downregulated | Cc1ccccc1N(CC(=O)NCc1ccccc1)C(=O)CCC(=O)Nc1nccs1 [SMC #33, N′-[2-(benzylamino)-2-oxoethyl]-N′-(2-methylphenyl)-N-(1,3-thiazol-2-yl)butanediamide] | 
